pIC50: −log10 of the molar value.
biological target: human recombinant GPR65 (Homo sapiens, UniProt Q8IYL9); assay: Human GPR65 cAMP HTRF antagonist assay; format: cell-based; conditions: not given
Method in brief: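 1321N1 astrocytoma cells stably expressing hrGPR65, with IBMX and EDTA, were preincubated with compound 30 min at room temperature, then acid-activated at assay pH 7.2 (control pH 7.9) for 30 min. cAMP read by HTRF (665/620 nm ratio); IC50 from 4-parameter fit normalised to high/low controls.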

Sequence of human recombinant GPR65 (Q8IYL9 whole entry): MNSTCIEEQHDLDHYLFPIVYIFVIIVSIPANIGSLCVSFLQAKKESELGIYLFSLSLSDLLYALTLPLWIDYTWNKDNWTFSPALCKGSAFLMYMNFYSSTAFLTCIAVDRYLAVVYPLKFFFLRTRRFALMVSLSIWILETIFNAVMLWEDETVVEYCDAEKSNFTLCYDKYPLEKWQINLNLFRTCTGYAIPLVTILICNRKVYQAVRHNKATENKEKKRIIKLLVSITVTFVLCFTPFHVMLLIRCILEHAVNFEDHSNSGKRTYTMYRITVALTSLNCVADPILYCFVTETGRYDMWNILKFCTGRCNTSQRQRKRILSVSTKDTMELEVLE

| Compound | pIC50 |
| --- | --- |
| O=C(Nc1cc(C(F)(F)F)c(-c2cnc3nonc3c2)cc1F)N1[C@H]2CC[C@@H]1c1n[nH]c(=O)cc1C2 [Compound 269, (6S,9R)-N-(4-([1,2,5]Oxadiazolo[3,4-b]pyridin-6-yl)-2-fluoro-5-(trifluoromethyl)phenyl)-3-oxo-3,5,6,7,8,9-hexahydro-2H-6,9-epiminocyclohepta[c]pyridazine-10-carboxamide] | > 6.30 |
| O=C(Nc1cc(Cl)c(C(F)(F)F)cc1F)N1[C@H]2CC[C@@H]1C(F)(F)c1c2ccnc1F [Compound 228, (5S,8R)-N-(5-Chloro-2-fluoro-4-(trifluoromethyl)phenyl)-1,9,9-trifluoro-6,7,8,9-tetrahydro-5H-5,8-epiminocyclohepta[c]pyridine-10-carboxamide] | 5.30 to 6.30 |
| O=C(Nc1ccc(Br)c(Cl)c1)N1[C@H]2CC[C@@H]1c1n[nH]c(=O)cc1C2 [Compound 39, (6S,9R)-N-(4-Bromo-3-chlorophenyl)-3-oxo-3,5,6,7,8,9-hexahydro-2H-6,9-epiminocyclohepta[c]pyridazine-10-carboxamide] | > 6.30 |
| O=C(Nc1cc(Cl)c(-c2ccc3nonc3c2)cn1)N1[C@H]2CC[C@@H]1c1n[nH]c(=O)cc1C2 [Compound 238, (6S,9R)-N-(5-(Benzo[c][1,2,5]oxadiazol-5-yl)-4-chloropyridin-2-yl)-3-oxo-3,5,6,7,8,9-hexahydro-2H-6,9-epiminocyclohepta[c]pyridazine-10-carboxamide] | > 6.30 |
| Cc1cc(-c2cc(F)c(NC(=O)N3[C@H]4CC[C@@H]3c3n[nH]c(=O)cc3C4)cc2Cl)ccn1 [Compound 134, (6S,9R)-N-(5-Chloro-2-fluoro-4-(2-methylpyridin-4-yl)phenyl)-3-oxo-3,5,6,7,8,9-hexahydro-2H-6,9-epiminocyclohepta[c]pyridazine-10-carboxamide] | > 6.30 |
| O=C(Nc1cc(Br)c(Cl)cc1F)N1[C@H]2CC[C@@H]1c1c[nH]c(=O)nc1C2 [Compound 26, (5R,8S)-N-(5-Bromo-4-chloro-2-fluorophenyl)-2-oxo-3,5,6,7,8,9-hexahydro-2H-5,8-epiminocyclohepta[d]pyrimidine-10-carboxamide] | > 6.30 |
| O=C(Nc1cc(Cl)c(-c2ccc(OCC(F)F)nc2)cc1F)N1[C@H]2CC[C@@H]1c1c[nH]c(=O)cc1C2 [Compound 322, (6S,9R)-N-(5-Chloro-4-(6-(2,2-difluoroethoxy)pyridin-3-yl)-2-fluorophenyl)-3-oxo-3,5,6,7,8,9-hexahydro-2H-6,9-epiminocyclohepta[c]pyridine-10-carboxamide] | > 6.30 |
| O=C(Nc1cc(Cl)c(-c2ccc3conc3c2)cc1F)N1[C@H]2CC[C@@H]1c1n[nH]c(=O)cc1C2 [Compound 198, (6S,9R)-N-(4-(Benzo[c]isoxazol-6-yl)-5-chloro-2-fluorophenyl)-3-oxo-3,5,6,7,8,9-hexahydro-2H-6,9-epiminocyclohepta[c]pyridazine-10-carboxamide] | > 6.30 |
| O=C(Nc1cc(Br)c(C(F)(F)F)cc1F)N1C2CCC1c1n[nH]c(=O)cc1C2 (racemic) [Compound 6, (±)-N-(5-Bromo-2-fluoro-4-(trifluoromethyl)phenyl)-3-oxo-3,5,6,7,8,9-hexahydro-2H-6,9-epiminocyclohepta[c]pyridazine-10-carboxamide] | > 6.30 |
| COc1ccc(-c2cc(F)c(NC(=O)N3[C@H]4CC[C@@H]3c3n[nH]c(=O)cc3C4)cc2Cl)nc1 [Compound 211, (6S,9R)-N-(5-Chloro-2-fluoro-4-(5-methoxypyridin-2-yl)phenyl)-3-oxo-3,5,6,7,8,9-hexahydro-2H-6,9-epiminocyclohepta[c]pyridazine-10-carboxamide] | > 6.30 |
| O=C(Nc1cc(Cl)c(-c2ccccc2)cc1F)N1[C@H]2CC[C@@H]1c1n[nH]c(=O)cc1C2 [Compound 113, (6S,9R)-N-(2-Chloro-5-fluoro-[1,1′-biphenyl]-4-yl)-3-oxo-3,5,6,7,8,9-hexahydro-2H-6,9-epiminocyclohepta[c]pyridazine-10-carboxamide] | > 6.30 |
| O=C(Nc1cc(Cl)c(-c2ccc(OCCC(F)(F)F)nc2)cc1F)N1[C@H]2CC[C@@H]1c1n[nH]c(=O)cc1C2 [Compound 320, (6S,9R)-N-(5-Chloro-2-fluoro-4-(6-(3,3,3-trifluoropropoxy)pyridin-3-yl)phenyl)-3-oxo-3,5,6,7,8,9-hexahydro-2H-6,9-epiminocyclohepta[c]pyridazine-10-carboxamide] | > 6.30 |
| O=C(Nc1cc(Cl)c(-c2cnc(F)c(F)c2)cc1F)N1[C@H]2CC[C@@H]1c1n[nH]c(=O)cc1C2 [Compound 279, (6S,9R)-N-(5-Chloro-4-(5,6-difluoropyridin-3-yl)-2-fluorophenyl)-3-oxo-3,5,6,7,8,9-hexahydro-2H-6,9-epiminocyclohepta[c]pyridazine-10-carboxamide] | > 6.30 |
| O=C(Nc1cc(Cl)c(-c2ccccc2)cc1F)N1[C@H]2CC[C@@H]1c1ccnc(F)c1C2 [Compound 250, (5R,8S)-N-(2-Chloro-5-fluoro-[1,1′-biphenyl]-4-yl)-1-fluoro-6,7,8,9-tetrahydro-5H-5,8-epiminocyclohepta[c]pyridine-10-carboxamide] | > 6.30 |
| CN1C(=O)Cc2ccc(-c3cc(F)c(NC(=O)N4[C@H]5CC[C@@H]4c4n[nH]c(=O)cc4C5)cc3Cl)cc21 [Compound 163, (6S,9R)-N-(5-Chloro-2-fluoro-4-(1-methyl-2-oxoindolin-6-yl)phenyl)-3-oxo-3,5,6,7,8,9-hexahydro-2H-6,9-epiminocyclohepta[c]pyridazine-10-carboxamide] | > 6.30 |
| COc1ccc(-c2cc(F)c(NC(=O)N3[C@H]4CC[C@@H]3c3n[nH]c(=O)cc3C4)cc2C(F)(F)F)cn1 [Compound 213, (6S,9R)-N-(2-Fluoro-4-(6-methoxypyridin-3-yl)-5-(trifluoromethyl)phenyl)-3-oxo-3,5,6,7,8,9-hexahydro-2H-6,9-epiminocyclohepta[c]pyridazine-10-carboxamide] | > 6.30 |
| O=C(Nc1cc(Cl)c(OC2CCC2)cc1F)N1[C@H]2CC[C@@H]1c1ccnc(F)c1C2 [Compound 67, (5R,8S)-N-(5-Chloro-4-cyclobutoxy-2-fluorophenyl)-1-fluoro-6,7,8,9-tetrahydro-5H-5,8-epiminocyclohepta[c]pyridine-10-carboxamide] | > 6.30 |
| O=C(Nc1cc(-c2cncc(F)c2)c(C(F)(F)F)cc1F)N1[C@H]2CC[C@@H]1c1c[nH]c(=O)cc1C2 [Compound 255, (6S,9R)-N-(2-Fluoro-5-(5-fluoropyridin-3-yl)-4-(trifluoromethyl)phenyl)-3-oxo-3,5,6,7,8,9-hexahydro-2H-6,9-epiminocyclohepta[c]pyridine-10-carboxamide] | > 6.30 |
| O=C(Nc1cc(Cl)c(-c2ccc3cncn3c2)cc1F)N1[C@H]2CC[C@@H]1c1n[nH]c(=O)cc1C2 [Compound 197, (6S,9R)-N-(5-Chloro-2-fluoro-4-(imidazo[1,5-a]pyridin-6-yl)phenyl)-3-oxo-3,5,6,7,8,9-hexahydro-2H-6,9-epiminocyclohepta[c]pyridazine-10-carboxamide] | > 6.30 |
| O=C(Nc1cc(Cl)c(-c2ccnc(F)c2)cc1F)N1[C@H]2CC[C@@H]1c1n[nH]c(=O)cc1C2 [Compound 266, (6S,9R)-N-(5-Chloro-2-fluoro-4-(2-fluoropyridin-4-yl)phenyl)-3-oxo-3,5,6,7,8,9-hexahydro-2H-6,9-epiminocyclohepta[c]pyridazine-10-carboxamide] | > 6.30 |
| O=C(Nc1cc(Cl)c(-c2nnc(C(F)(F)F)s2)cc1F)N1[C@H]2CC[C@@H]1c1ccnc(F)c1C2 [Compound 65, (5R,8S)-N-(5-Chloro-2-fluoro-4-(5-(trifluoromethyl)-1,3,4-thiadiazol-2-yl)phenyl)-1-fluoro-6,7,8,9-tetrahydro-5H-5,8-epiminocyclohepta[c]pyridine-10-carboxamide] | > 6.30 |

same assay, conditions: 1321N1-hrGPR65 cells, cAMP HTRF, assay pH 7.2; read-out: hGPR65 IC50 (Activity of selected compounds according to the invention)

| Compound | pIC50 |
| --- | --- |
| O=C(Nc1cc(Cl)c(Cl)cc1F)N1[C@H]2CC[C@@H]1c1ncccc1C2 [Compound 90, (6S,9R)-N-(4,5-Dichloro-2-fluorophenyl)-6,7,8,9-tetrahydro-5H-6,9-epiminocyclohepta[b]pyridine-10-carboxamide] | < 5.30 |
| CNC(=O)c1ccc(-c2cc(F)c(NC(=O)N3[C@H]4CC[C@@H]3c3n[nH]c(=O)cc3C4)cc2Cl)cc1 [Compound 130, (6S,9R)-N-(2-Chloro-5-fluoro-4′-(methylcarbamoyl)-[1,1′-biphenyl]-4-yl)-3-oxo-3,5,6,7,8,9-hexahydro-2H-6,9-epiminocyclohepta[c]pyridazine-10-carboxamide] | 5.30 to 6.30 |
| N#Cc1cc(F)c(NC(=O)N2C3CCC2c2n[nH]c(=O)cc2C3)cc1Cl (racemic) [Compound 53, (±)-N-(5-Chloro-4-cyano-2-fluorophenyl)-3-oxo-3,5,6,7,8,9-hexahydro-2H-6,9-epiminocyclohepta[c]pyridazine-10-carboxamide] | 5.30 to 6.30 |
| O=C(Nc1ccc(Br)c(Cl)c1)N1[C@@H]2CC[C@H]1c1n[nH]c(=O)cc1C2 [Compound 40, (6R,9S)-N-(4-Bromo-3-chlorophenyl)-3-oxo-3,5,6,7,8,9-hexahydro-2H-6,9-epiminocyclohepta[c]pyridazine-10-carboxamide] | < 5.30 |
| CNCCOc1ccc(-c2cc(F)c(NC(=O)N3[C@H]4CC[C@@H]3c3ccnc(F)c3C4)cc2Cl)cn1 [Compound 300, (5R,8S)—N-(5-Chloro-2-fluoro-4-(6-(2-(methylamino)ethoxy)pyridin-3-yl)phenyl)-1-fluoro-6,7,8,9-tetrahydro-5H-5,8-epiminocyclohepta[c]pyridine-10-carboxamide] | 5.30 to 6.30 |
| O=C(Nc1ccc(C2CCOCC2)cc1)N1[C@H]2CC[C@@H]1c1ccnc(F)c1C2 [Compound 57, (5R,8S)-1-Fluoro-N-(4-(tetrahydro-2H-pyran-4-yl)phenyl)-6,7,8,9-tetrahydro-5H-5,8-epiminocyclohepta[c]pyridine-10-carboxamide] | 5.30 to 6.30 |
